Several values for one entry are separate records, joined by “and”; a condition that tells them apart may be missing. Equal entries are not always repeated.
Experiments:
A549 cells [1] = test: Vacuole formation by phase contrast microscopy; type: cell-based; conditions: A549, 6 μM, 20 h, phase contrast microscopy (FIG. 3D)
Procedure: (§1) (3A) A549 non-small cell lung cancer cells were treated with XJB-OMe, 3-hydroxy-β-lapachone (14), or XJB-lapachone (18) at indicated concentrations for 24 h. Cell viability was determined by a CellTiter-Blue assay. Data represents the mean±SEM. (3B) PEO1 ovarian cancer cells, MDA-MB-231 breast cancer cells, and 983B melanoma cells were treated with XJB-lapachone (18) at indicated concentrations for 24 h. Cell viability was determined by a CellTiter-Blue assay. Data represents the mean±SEM. (3C) Equal numbers of A549 and IMR90 lung fibroblast cells were treated with 10 μM XJB-lapachone (18) for 4 h. XJB-lapachone was then washed away and cells were incubated in drug free media for 3 days. Cell viability was determined by a CellTiter-Blue assay. (3D) A549 cells were treated with XJB-OMe, 3-hydroxy-β-lapachone (14), or XJB-lapachone (18) at 6 μM concentrations for 20 h. The formation of vacuoles was examined by phase contrast microscopy. Representative images are shown. (3E) A549 cells were treated as described above. Apoptotic and necrotic cell death were determined by Annexin V and PI staining. Representative images are shown.
Microscopy: For vacuole imaging, A549 cells were plated in 12-well plate, treated with compounds and the phase contrast images were captured using a Nikon Eclipse TS100 inverted microscope. […]

A549 cells [2] = test: Oxygen consumption rate, Seahorse extracellular flux analysis; type: cell-based; conditions: A549, 6 μM, 16 h, Seahorse (FIG. 4B)
Procedure: (§2) (4A) A549 cells were treated with XJB-OMe, 3-hydroxy-β-lapachone (14), or XJB-lapachone (18) at 6 μM for 16 h. The generation of ROS was determined by staining cells with MitoSox and DCFHDA. The fluorescence intensity was measured by flow cytometry. Data represents the mean±S.D. of triplicates. (4B) A549 cells were treated as described in A, and the oxygen consumption rate was determined by a Seahorse extracellular flux analyzer. […] (4C) A549 cells were treated as described in A, and mitochondria morphology was examined by electron microscopy. Representative images are shown. (4D) A549 cells were treated as described above. The expression of the autophagy marker LC3 was examined by western blot. β-actin was used as a loading control. Representative images are shown.
Extracellular flux (XF) analysis: Oxygen consumption rate (OCR) was measured using a Seahorse XF96 Extracellular Flux Analyzer (Seahorse Bioscience, North Billerica, Mass.), as previously described (Qian W, et al., Alterations in bioenergetics due to changes in mitochondrial DNA copy number. Methods 2010 51:452-457). Briefly, A549 cells were plated in a 6-well plate and treated with compounds for 16 h. After treatment, cells were trypsinized, counted, and plated at 40,000 cells per well in a XF96 microplate using Cell-Tak cell adhesive. OCR measurements were then performed using a XF96 analyzer.

MDA-MB-231 rho0 cells = test: Celltiter-blue cell viability in rho0 cells; type: cell-based; conditions: MDA-MB-231 rho0 cells (mtDNA depleted), increasing concentrations, 24 h (FIG. 8)
Procedure: MDA-MB-231 parental and rho0 cells (established by long-term culture of parental MDA-MB-231 cells in the presence of 50 ng/ml ethidium bromide) were treated with increasing concentrations of XJB-lapachone for 24 h. Cell viability was determined by Celltiter-blue.

983B melanoma cells = test: CellTiter-Blue cell viability assay, 24 h treatment; type: cell-based; conditions: 983B cells, indicated concentrations, 24 h (FIG. 3B)
Procedure: as §1
(§3) Cell culture: A549 non-small cell lung cancer cells and MDA-MB-231 breast carcinoma cells were obtained from American Type Culture Collection (ATCC). Ovarian cancer cells PEO1 were kindly provided by Dr. Karyn J. Hansen (Magee-Womens Hospital of UPMC). 983B melanoma cells were kindly provided by Dr. Stergios J. Moschos (University of North Carolina). IMR90 normal lung fibroblast cells were kindly provided by Dr. Christopher Bakkenist (University of Pittsburgh Cancer Institute). Cells were cultured in either RPMI 1640 or DMEM media supplemented with 10% heat-inactivated fetal calf serum and 1% penicillin-streptomycin in 5% CO2 at 37° C.
(§4) Cell viability and apoptosis assays: Cell viability was determined using a CellTiter-Blue Cell Viability Assay (Promega, Madison, Wis.). The survival fractions were calculated after setting untreated control cells at 100%. An FITC Annexin V Apoptosis Detection Kit (BD PharMingen, San Diego, Calif.) was used to quantify apoptotic cells and necrotic cells, according to the manufacturer's instructions.
(§5) In order to investigate the cellular toxicity of 18 (XJB-lapachone), A549 nonsmall cell lung cancer cells were treated with various concentrations of XJB-lapachone for 24 h, and compared its effect with XJB-OMe (the mitochondrial targeting moiety) and unconjugated 3-hydroxy-β-lapachone (14). […] Furthermore, XJB-lapachone is also effective against other types of tumor cells, including PEO1 ovarian cancer cells, MDA-MB-231 breast cancer cells, and 983B melanoma cells (FIG. 3B). […] Tumor selectivity of β-lapachone, and whether the same is maintained after XJB conjugation, was examined. The cytotoxic effect of XJB-lapachone on A549 lung cancer and non-transformed human lung fibroblast cells IMR90 was determined by a cell growth/death assay.

[3] = test system: A549 non-small cell lung cancer cells; test: as above; type: cell-based; conditions: various concentrations, CellTiter-Blue (FIG. 3A)
Procedure: as §1, §3, §4, §5

[4] = test system: MDA-MB-231 breast cancer cells; test: as above; type: cell-based; conditions: MDA-MB-231 cells (NQO1 deficient), indicated concentrations, 24 h (FIG. 3B)
Procedure: as §1, §3, §4, §5

[5] = test system: PEO1 ovarian cancer cells; test: as above; type: cell-based; conditions: indicated concentrations, 24 h (FIG. 3B)
Procedure: as §1, §3, §4, §5

A549 lung cancer cells = test: Cell growth/death assay (4 h exposure, wash-out, 3 days drug free); type: cell-based; conditions: A549, 10 μM for 4 h, washed, 3 days drug free media (FIG. 3C)
Procedure: as §1, with “The formation of vacuoles was examined by phase contrast microscopy. Representative images are shown. (3E) A549 cells were treated as described above.” left out, “Representative images are shown.” left out
as §4, with “instructions. […]” for “instructions.”

[6] = test system: IMR90 lung fibroblast cells; test: as above; type: cell-based, human; conditions: IMR90, 10 μM for 4 h, washed, 3 days drug free media (FIG. 3C)
Procedure: as §1, with “The formation of vacuoles was examined by phase contrast microscopy. Representative images are shown. (3E) A549 cells were treated as described above.” left out, “Representative images are shown.” left out
as §4, with “instructions. […]” for “instructions.”

A549 cells [7] = test: Annexin V and PI staining (apoptotic and necrotic cell death); type: cell-based; conditions: A549, 6 μM, 20 h, compared to unconjugated 3-hydroxy-β-lapachone (FIG. 3E)
Procedure: as §1, with “The formation of vacuoles was examined by phase contrast microscopy. Representative images are shown. (3E) A549 cells were treated as described above.” left out, “Representative images are shown.” left out
as §4

A549 cells [8] = test: ROS generation by DCF-DA and MitoSox, flow cytometry; type: cell-based; conditions: for ROS generation (DCF) / mitochondrial ROS generation (MitoSox): A549, 6 μM, 16 h, flow cytometry (FIG. 4A)
Procedure: as §2
(§6) Determination of ROS generation: To measure intracellular generation of ROS, cells were incubated with 5 μM DCF-DA (Sigma) for 20 min at 37° C. after drug exposure. To measure mitochondrial generated ROS, cells were incubated with 5 μM of MitoSox (Invitrogen) for 20 min at 37° C. After wash with PBS, cells were trypsinized and suspended in HBSS containing 1% BSA. The fluorescence intensity of DCF and MitoSox were analyzed using an Accuri C6 flow cytometer (BD Accuri Cytometers, Ann Arbor, Mich.).
(§7) A549 non-small cell lung cancer cells (high NQO1) and MDA-MB-231 triple negative breast cancer cells (NQO1 deficient) were treated as indicated in FIG. 6. Mitochondrial ROS generation was determined by MitoSox followed by flow cytometry, essentially as described above.

A549 cells [9] = test: Mitochondria morphology by transmission electron microscopy; type: cell-based; conditions: A549, 6 μM, 16 h, electron microscopy (FIG. 4C)
Procedure: as §2
Microscopy: For vacuole imaging, A549 cells were plated in 12-well plate, treated with compounds and the phase contrast images were captured using a Nikon Eclipse TS100 inverted microscope. For transmission electron microscopy analysis, A549 cells cultured in 6-well plate were fixed with 2.5% glutaraldehyde (Sigma-Aldrich) in PBS for 1 h at room temperature, and post-fixed for 1 h at 4° C. in 1% OsO4 with 1% K3Fe(CN)6. After dehydration and embedding, ultrathin (70 nm) sections were cut and mounted onto copper grids. […]

LC3 = test: Western blot of autophagy marker LC3; type: cell-based; conditions: A549, western blot (FIG. 4D)
Procedure: as §2
Western blot analysis: Western blot was performed. Primary antibody LC3 was obtained from Novus (Littleton, Colo.) and β-actin was purchased from Sigma-Aldrich (St. Louis, Mo.).

[10] = test system: A549 non-small cell lung cancer cells; test: Colony forming capacity (crystal violet) 10 days after drug treatment; type: cell-based
Procedure: Drug efficacy was determined by colony forming capacity using crystal violet 10 days after drug treatment.
A549 non-small cell lung cancer cells were treated with XJB-lapachone alone or combination with cisplatin or etoposide for 4 h at concentrations indicated in FIG. 10. Drug efficacy was determined by colony forming capacity 10 days after drug treatment.
A549 cells were treated with XJB-lapachone for 4 h. XJB-lapachone was then washed away before IR exposure (gamma-irradiation with a Shepherd Mark I Model 68 [^137Cs] irradiator) at 0, 1, 2, 4, and 6 Gy (grays). The number of colonies was counted 10 days after IR exposure (FIG. 11).

[11] = test system: MDA-MB-231 triple negative breast cancer cells (NQO1 deficient); test: Mitochondrial ROS generation by MitoSox, flow cytometry; type: cell-based
Procedure: as §6, §7
Mitochondrial ROS generation was determined by MitoSox followed by flow cytometry. Left-shift of peak indicates decrease of ROS and right-shift of peak indicates increase of ROS.

DNA damage signaling = test: Western blot of DNA damage signaling activation; type: cell-based; conditions: A549, western blot after treatment (FIG. 9)
Procedure: Western blot was performed […] after treatment to examine the activation of DNA damage signaling. Antibodies used in the Western Blot were β-actin (AC-15) and ATM (MAT3-4G10/8) (from Sigma); Chk1 (2G1D5), phospho-Chk2 (Thr68) (C13C1), Chk2 (1C12) (from Cell Signaling Technology); phospho-Chk1 (Ser317) (from R&D systems); and phospho-ATM (S1981) (from Epitomics).

CC1(C)OC2=C(CC1O)C(=O)C(=O)c1ccccc12 (stereo not drawn) [3-hydroxy-β-lapachone, reference compound]
vacuolization (formation of vacuoles) (A549 cells [1]): not detected
inhibition of mitochondrial respiration (oxygen consumption) by oligomycin after treatment (A549 cells [2]): oligomycin was efficient in inhibiting the mitochondrial respiration
induction of cell death in rho0 cells (cell viability) (MDA-MB-231 rho0 cells): not

CC(C)C[C@@H](/C=C/[C@H](Cc1ccccc1)C(=O)N1CCC[C@H]1C(=O)N[C@H](C(=O)N[C@@H](CCCNC(=O)OCc1ccccc1)C(=O)NCCC(=O)OC1CC2=C(OC1(C)C)c1ccccc1C(=O)C2=O)C(C)C)NC(=O)OC(C)(C)C (stereo partly drawn) [XJB-lapachone, 2,2-Dimethyl-5,6-dioxo-3,4,5,6-tetrahydro-2H-benzo[h]chromen-3-yl 3-((S)-2-((S)-2-((S)-1-((2S,5S,E)-2-benzyl-5-((tert-butoxycarbonyl)amino)-7-methyloct-3-enoyl)pyrrolidine-2-carboxamido)-3-methylbutanamido)-5-(((benzyloxy)carbonyl)amino)pentanamido) propanoate]
cell viability (983B melanoma cells): effective
cell viability / cytotoxic effect ([3]; listed as XJB-Lapachone): superior compared to unconjugated β-lapachone
cell viability / cytotoxic effect ([3]; listed as XJBLapachone): reduced cell viability in a dose dependent manner
cell viability [4]: effective
cell viability [5]: effective
cell viability after four-hour exposure (A549 lung cancer cells): significantly reduced the viability
cell viability after four-hour exposure (toxic effect on non-transformed cells) [6]: toxic effect was less prominent
vacuolization (formation of vacuoles) (A549 cells [1]): extensive vacuolization
annexin V positive cells (apoptosis) (A549 cells [7]): more annexin V positive cells were induced
mitochondrial ROS generation (MitoSox), dose and time dependence (A549 cells [8]; A549 (high NQO1) (FIG. 6)): Induces Mitochondrial ROS Generation in a Dose and Time Dependent Manner
ROS generation (DCF) (A549 cells [8]): dramatic increase of ROS generation
mitochondrial ROS generation (MitoSox) (A549 cells [8]): dramatic increase of ROS generation
ROS generation (DCF) (A549 cells [8]; listed as 18): stronger than unconjugated 3-hydroxy-β-lapachone
mitochondrial ROS generation (MitoSox) (A549 cells [8]; listed as 18): stronger than unconjugated 3-hydroxy-β-lapachone
inhibition of mitochondrial respiration (oxygen consumption) by oligomycin after treatment (A549 cells [2]): can no longer be inhibited by oligomycin
mitochondria morphology (A549 cells [9]): onion skin-like structures of mitochondria were observed
increase in LC3-II immunoblot signal (LC3): increase in an LC3-II immunoblot signal was observed
colony forming capacity in combination with cisplatin or etoposide ([10]; A549, 4 h, alone or combination with cisplatin or etoposide, 10 days (FIG. 10)): enhances the effect of DNA-damaging anticancer agents
treatment efficacy by colony forming capacity ([10]; A549, 4 h treatment, colonies 10 days after (FIG. 5)): Higher Treatment Efficacy as Compared to Unconjugated Beta-Lapachone
number of colonies in combination with ionizing radiation ([10]; A549, 4 h treatment, washed, IR 0-6 Gy, colonies counted 10 days after (FIG. 11)): Synergistic Effect
mitochondrial ROS generation (MitoSox), dose and time dependence ([11]; MDA-MB-231 (NQO1 deficient) (FIG. 6)): Induces Mitochondrial ROS Generation in a Dose and Time Dependent Manner
mitochondrial ROS levels at high concentration ([11]; MDA-MB-231, 2 h, high concentration (FIG. 7)): Increases Mitochondrial ROS
mitochondrial ROS levels at low concentration ([11]; MDA-MB-231, 2 h, low concentration (FIG. 7)): Reduces Mitochondrial ROS Levels
concentration at which ROS decreased ([11]; as described in the examples): ≤ 1 µM
concentration that increases ROS production in the mitochondria ([11]; as described in the examples): > 1.0 µM and > 2.0 µM
induction of cell death in rho0 cells (cell viability) (MDA-MB-231 rho0 cells): effective in inducing cell death in rho0 cells
activation of DNA damage signaling (DNA damage) (DNA damage signaling): induces DNA damage

Reference: patent publication US10968196B2, “Substituted β-lapachones for treating cancer” (University of Pittsburgh—Of the Commonwealth System of …, priority 2015, dated 2021)
